# Patent US20110008802A1, “TNFalpha GENE EXPRESSION AS A BIOMARKER OF SENSITIVITY TO ANTAGONISTS OF INHIBITOR OF APOPTOSIS PROTEINS” (TETRALOGIC PHARMACEUTICALS CORP., priority 2007, published 2011)
# Legend:
# OVCAR-8 cells = experiment: MTT assay of compound C with or without TNFα blocking antibody, OVCAR-8 cells; format: cell-based, human; settings: compound C+anti-TNFα antibody (MAB610) vs compound C alone, 72 hrs
# Experimental: (§1) We have previously observed that our compounds promote rapid cIAP-1 degradation. Therefore, we hypothesized that degradation of cIAP-1 may result in autocrine activation of the death-receptor pathway by TNFα. To test this, we used TNFα blocking antibody in an MTT assay. Briefly, indicated ovarian cancer cell lines were seeded into 96-well cell culture plates at a density of 5,000 cells per well. The next day, anti-TNFα antibody (MAB610, R&D Systems, Minneapolis, Minn.) was added to cells at a final concentration of 10 µg/mL and allowed to incubate for 1 hr at 37° C., 5% CO2. Following incubation, a range of concentrations of the cIAP antagonist compound C was added to cells. Cells were incubated in the presence of compound C+anti-TNFα antibody or in the presence of compound C alone as a control for an additional 72 hrs. Following 72 hr incubation, MTT reagent (3-(4,5-dimethylthiazolyl-2)-2,5-diphenyltetrazolium bromide; SIGMA, St. Louis, Mo.) was added to all wells at a final concentration of 1 mg/mL and allowed to incubate for 2 hrs at 37° C., 5% CO2. Following a 2 hr incubation, all media was removed from wells and […] DMSO was added to solubilize formazan crystals. After a brief incubation at room temp on a microplate shaker, absorbance was measured at 570 nm using a Victor^2V fluorescent microplate reader (Perkin-Elmer, Turku, Finland). […]
# SKOV3 cells = experiment: MTT assay of compound C with or without TNFα blocking antibody, SKOV3 cells; format: cell-based, human; settings: compound C+anti-TNFα antibody (MAB610) vs compound C alone, 72 hrs
# Experimental: as §1
smiles,measurement,setting,value
CN[C@@H](C)C(=O)N[C@H](C(=O)N1C[C@@H](O)C[C@H]1CC1=C(C2=C(C[C@@H]3C[C@H](O)CN3C(=O)[C@@H](NC(=O)[C@H](C)NC)[C@@H](C)OC)c3ccc(F)cc3C2)Cc2cc(F)ccc21)[C@@H](C)OC [compound C],"effect of anti-TNFα antibody on cIAP antagonist induced cytotoxicity (CC50 curve, FIG. 1)",OVCAR-8 cells,abrogates cIAP antagonist induced cytotoxicity
same,"effect of anti-TNFα antibody on cIAP antagonist induced cytotoxicity (CC50 curve, FIG. 2)",SKOV3 cells,abrogates cIAP antagonist induced cytotoxicity
